In patent US9743676B2, “Pesticidal compositions comprising a solid insecticide and an essential oil” (AirRx Antimicrobial Sciences Inc., priority 2015, dated 2017):
Read-outs that look alike come from different tables or passages of the source.

How the values were obtained:
[1] = system: nonresistant strain of bed bug; conditions: for Residual Effect (% Knockdown & Mortality/hrs) 24: 24 hrs; for Residual Effect (% Knockdown & Mortality/hrs) 48: 48 hrs; for Residual Effect (% Knockdown & Mortality/hrs) 72: 72 hrs
Procedure: The compositions and individual components thereof were prepared to provide the appropriate rates of application for combinations of acetamiprid, chlorfenapyr, and rosemary oil, as well as acetamiprid, chlorfenapyr, and rosemary oil paired and alone. The insecticide formula(s) were aliquoted (100 μL) into a glass petri dish (100 mm). Filter paper was placed on top of the solution. Ten adult bed bugs were then placed on top of the filter paper and morbidity and moribundity (knockdown) and mortality was recorded at 5 minutes for each treatment combination and the control. After 2 hours, bed bugs were removed from the treated surface and placed in a holding chamber. Bed bug morbidity, moribund, and mortality was recorded every 24 hours for 7 days.
Dash indicates no knockdown or mortality during exposure.

[2] = system: adult bed bugs resistant strain (UMC) colony; test: Contact lethal time of pyrethroids and rosemary oil on treated filter paper, Example 4; assay type: in vivo, bed bug; conditions: rate 0.01 % by weight
Procedure: The control is 100 μL […]. Filter paper was then placed on top of the solution.

## CC(=NC#N)N(C)Cc1ccc(Cl)nc1 [Acetamiprid, N-[(6-chloro-3-pyridyl)methyl]-N′-cyano-N-methyl-acetamidine]
[1]; rate 0.01 % by weight
  2 hour exposure (min) LT50: 39.3 min
  2 hour exposure (min) LT99: 38038.1 min
  Residual Effect (% Knockdown & Mortality/hrs) 24: 10.0%
  Residual Effect (% Knockdown & Mortality/hrs) 48: 20.0%
  Residual Effect (% Knockdown & Mortality/hrs) 72: 20.0%
[1]; rate 0.1 % by weight
  2 hour exposure (min) LT50: 22.4 min
  2 hour exposure (min) LT99: 12565.9 min
  Residual Effect (% Knockdown & Mortality/hrs) 24: 20.0%
  Residual Effect (% Knockdown & Mortality/hrs) 48: 10.0%
  Residual Effect (% Knockdown & Mortality/hrs) 72: 10.0%
[1]; rate 1.0 % by weight
  2 hour exposure (min) LT50: 7.0 min
  2 hour exposure (min) LT99: 510.8 min
  Residual Effect (% Knockdown & Mortality/hrs) 24: 40.0%
  Residual Effect (% Knockdown & Mortality/hrs) 48: 30.0%
  Residual Effect (% Knockdown & Mortality/hrs) 72: 50.0%

## CC1(C)C(C=C(Cl)Cl)C1C(=O)OCc1cccc(Oc2ccccc2)c1 (stereo not shown) [Permethrin, permethrin]
[2]
  LT50: 20.78 min
  LT95: 490.348 min

## CC(C)=CC1C(C(=O)OCN2C(=O)C3=C(CCCC3)C2=O)C1(C)C (stereo not shown) [Tetramethrin, tetramethrin]
[2]
  LT50: 14000 min
  LT95: 6.5e+06 min

## CCOCn1c(-c2ccc(Cl)cc2)c(C#N)c(Br)c1C(F)(F)F [Chlorfenapyr, 4-Bromo-2-(4-chlorophenyl)-1-ethoxymethyl-5-trifluoromethyl-1H-pyrrole-3-carbonitrile]
[1]; rate 0.01 % by weight
  Residual Effect (% Knockdown & Mortality/hrs) 24: 0.0%
  Residual Effect (% Knockdown & Mortality/hrs) 48: 0.0%
  Residual Effect (% Knockdown & Mortality/hrs) 72: 0.0%
[1]; rate 0.1 % by weight
  Residual Effect (% Knockdown & Mortality/hrs) 24: 30.0%
  Residual Effect (% Knockdown & Mortality/hrs) 48: 50.0%
  Residual Effect (% Knockdown & Mortality/hrs) 72: 70.0%
[1]; rate 1.0 % by weight
  Residual Effect (% Knockdown & Mortality/hrs) 24: 40.0%
  Residual Effect (% Knockdown & Mortality/hrs) 48: 80.0%
  Residual Effect (% Knockdown & Mortality/hrs) 72: 100.0%
